Results as given in PubChem BioAssay (NCI).
Values joined by “and” are separate entries in the source; they are usually repeats but may differ in a detail not shown here. Identical values can stand only once.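 Protocol summary: plate cells (96-well), add compound at 5 concentrations, incubate 48 h, interpolate endpoints linearly. The concentration for 50% growth inhibition is given as GI50. Definition used: TGI = concentration required for complete inhibition of growth.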

Test system: COLO 205 colon
Assay: NCI-60 cell line screen, 48 h

Row | SMILES | GI50 | TGI
1 | Fc1ccc(Nc2cc(-n3nnc4ccccc43)nc3ccccc23)cc1 | 5.74 µM | > 100 µM
2 | NC(=O)C(=CNc1nc(-c2ccc(Cl)c(Cl)c2)cs1)C(N)=O | > 100 µM | > 100 µM
3 | NC(N)=N/N=C/c1cc(Cl)cc(Cl)c1O | – | > 100 µM
4 | O=C(Nc1cccc(Cl)c1)c1cc2ccccc2cc1O | 19.1 µM and 13.6 µM | > 100 µM and 79 µM
5 | OCCCCC#Cc1ccccc1C#Cc1cccc(O)c1 | 19.7 µM | 35.6 µM
6 | N#CC1Nc2ccccc2[C@@H](O)C1O (some centres undefined) | – | > 100 µM
7 | CC(C)c1ccccc1S(=O)c1ccccc1C(C)(C)O (centres undefined) | – | > 100 µM
8 | O=C(N/N=C\c1cc(Br)ccc1O)c1ccncc1 | 1.23 µM | 16.8 µM
9 | COc1ccccc1/C=C/c1cnccn1 | – | > 10 µM
10 | Cc1c(C2Nc3ccccc3C2C)[nH]c2ccccc12 (centres undefined) | 10.5 µM | 22.5 µM
11 | CCN(CC)CC(C)(C)C(=O)/C=C/c1ccc(Cl)c(Cl)c1 | 1.7 µM | 3.34 µM
12 | CCN(CC)CCNCC(=O)Oc1ccc(/C=C/C(=O)CC(=O)/C=C/c2ccc(OC(=O)CNCCN(CC)CC)c(OC)c2)cc1OC | 5.06 µM | 22.8 µM

Test system: M14 melanoma
Assay: NCI-60 cell line screen, 48 h

Row | SMILES | GI50 | TGI [µM]
13 | Fc1ccc(Nc2cc(-n3nnc4ccccc43)nc3ccccc23)cc1 | > 81.7 µM | > 100
14 | NC(=O)C(=CNc1nc(-c2ccc(Cl)c(Cl)c2)cs1)C(N)=O | > 100 µM | > 100
15 | NC(N)=N/N=C/c1cc(Cl)cc(Cl)c1O | – | > 100
16 | O=C(Nc1cccc(Cl)c1)c1cc2ccccc2cc1O | 3.67 µM and 2.24 µM | > 100
17 | OCCCCC#Cc1ccccc1C#Cc1cccc(O)c1 | 17.4 µM | 35.1
18 | N#CC1Nc2ccccc2[C@@H](O)C1O (some centres undefined) | – | > 100
19 | CC(C)c1ccccc1S(=O)c1ccccc1C(C)(C)O (centres undefined) | – | > 100
20 | O=C(N/N=C\c1cc(Br)ccc1O)c1ccncc1 | 2.45 µM | 26
21 | COc1ccccc1/C=C/c1cnccn1 | – | > 10
22 | Cc1c(C2Nc3ccccc3C2C)[nH]c2ccccc12 (centres undefined) | 15.3 µM | 38.7
23 | CCN(CC)CC(C)(C)C(=O)/C=C/c1ccc(Cl)c(Cl)c1 | 1.66 µM | 3.39
24 | CCN(CC)CCNCC(=O)Oc1ccc(/C=C/C(=O)CC(=O)/C=C/c2ccc(OC(=O)CNCCN(CC)CC)c(OC)c2)cc1OC | 2.82 µM | 11

Test system: MOLT-4 leukemia
Assay: NCI-60 cell line screen, 48 h

Row | SMILES | GI50 | TGI [µM]
25 | Fc1ccc(Nc2cc(-n3nnc4ccccc43)nc3ccccc23)cc1 | > 100 µM | > 100
26 | NC(=O)C(=CNc1nc(-c2ccc(Cl)c(Cl)c2)cs1)C(N)=O | 48.7 µM | > 100
27 | NC(N)=N/N=C/c1cc(Cl)cc(Cl)c1O | – | > 100
28 | O=C(Nc1cccc(Cl)c1)c1cc2ccccc2cc1O | 4.07 µM and 4.04 µM | > 100
29 | OCCCCC#Cc1ccccc1C#Cc1cccc(O)c1 | 18 µM | 40.7
30 | N#CC1Nc2ccccc2[C@@H](O)C1O (some centres undefined) | – | > 100
31 | CC(C)c1ccccc1S(=O)c1ccccc1C(C)(C)O (centres undefined) | – | > 100
32 | O=C(N/N=C\c1cc(Br)ccc1O)c1ccncc1 | 0.551 µM | 23.5
33 | COc1ccccc1/C=C/c1cnccn1 | – | > 10
34 | Cc1c(C2Nc3ccccc3C2C)[nH]c2ccccc12 (centres undefined) | 11.2 µM | 49.5
35 | CCN(CC)CC(C)(C)C(=O)/C=C/c1ccc(Cl)c(Cl)c1 | 2.37 µM | 8.11
36 | CCN(CC)CCNCC(=O)Oc1ccc(/C=C/C(=O)CC(=O)/C=C/c2ccc(OC(=O)CNCCN(CC)CC)c(OC)c2)cc1OC | 5.14 µM | > 100

Test system: HL-60(TB) leukemia
Assay: NCI-60 cell line screen, 48 h

Row | SMILES | GI50 | TGI [µM]
37 | Fc1ccc(Nc2cc(-n3nnc4ccccc43)nc3ccccc23)cc1 | > 100 µM | > 100
38 | NC(=O)C(=CNc1nc(-c2ccc(Cl)c(Cl)c2)cs1)C(N)=O | 42.8 µM | > 100
39 | NC(N)=N/N=C/c1cc(Cl)cc(Cl)c1O | – | > 100
40 | O=C(Nc1cccc(Cl)c1)c1cc2ccccc2cc1O | 3.16 µM and 1.61 µM | –
41 | OCCCCC#Cc1ccccc1C#Cc1cccc(O)c1 | 19.4 µM | 41.9
42 | N#CC1Nc2ccccc2[C@@H](O)C1O (some centres undefined) | – | > 100
43 | CC(C)c1ccccc1S(=O)c1ccccc1C(C)(C)O (centres undefined) | – | > 100
44 | O=C(N/N=C\c1cc(Br)ccc1O)c1ccncc1 | 1.28 µM | 5.57
45 | COc1ccccc1/C=C/c1cnccn1 | – | > 10
46 | Cc1c(C2Nc3ccccc3C2C)[nH]c2ccccc12 (centres undefined) | 13.1 µM | 38.3
47 | CCN(CC)CC(C)(C)C(=O)/C=C/c1ccc(Cl)c(Cl)c1 | 1.07 µM | 6.59
48 | CCN(CC)CCNCC(=O)Oc1ccc(/C=C/C(=O)CC(=O)/C=C/c2ccc(OC(=O)CNCCN(CC)CC)c(OC)c2)cc1OC | 3.39 µM | 91.8

Test system: HCT-116 colon
Assay: NCI-60 cell line screen, 48 h

Row | SMILES | GI50 | TGI
49 | Fc1ccc(Nc2cc(-n3nnc4ccccc43)nc3ccccc23)cc1 | 36.4 µM | > 100 µM
50 | NC(=O)C(=CNc1nc(-c2ccc(Cl)c(Cl)c2)cs1)C(N)=O | > 100 µM | > 100 µM
51 | NC(N)=N/N=C/c1cc(Cl)cc(Cl)c1O | – | > 100 µM
52 | O=C(Nc1cccc(Cl)c1)c1cc2ccccc2cc1O | 1.68 µM and 0.828 µM | > 100 µM and 21.1 µM
53 | OCCCCC#Cc1ccccc1C#Cc1cccc(O)c1 | 15.5 µM | 30 µM
54 | N#CC1Nc2ccccc2[C@@H](O)C1O (some centres undefined) | – | > 100 µM
55 | CC(C)c1ccccc1S(=O)c1ccccc1C(C)(C)O (centres undefined) | – | > 100 µM
56 | O=C(N/N=C\c1cc(Br)ccc1O)c1ccncc1 | 1.8 µM | > 100 µM
57 | COc1ccccc1/C=C/c1cnccn1 | – | > 10 µM
58 | Cc1c(C2Nc3ccccc3C2C)[nH]c2ccccc12 (centres undefined) | 0.83 µM | 23.5 µM
59 | CCN(CC)CC(C)(C)C(=O)/C=C/c1ccc(Cl)c(Cl)c1 | 1.79 µM | 3.2 µM
60 | CCN(CC)CCNCC(=O)Oc1ccc(/C=C/C(=O)CC(=O)/C=C/c2ccc(OC(=O)CNCCN(CC)CC)c(OC)c2)cc1OC | 2.81 µM | 12.3 µM
